29 molecules from patent US20250179061A1 (SIRONAX LTD., priority 2022, published 2025) can be followed below.

For the assay, the system named is HT-29 cells. In words: HT-29 necroptosis cell viability assay (TNF-α/SMAC mimetic/zVAD-FMK, CellTiter-Glo). It counts as cell-based. Particulars: Homo sapiens, HT-29, HT-29 necroptosis cell viability, IC50 class symbols; read-out: Activity. In outline: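 HT-29 cells (~5,000/well, overnight) in FBS-free McCoy's 5A with TNF-α 10 ng/ml, SMAC mimetic 6 μM and zVAD-FMK 10 μM plus 10-point 1:3 compound titration, 20 h at 37°C. ATP measured by CellTiter-Glo luminescence; IC50 as geometric mean of duplicates.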

In the case of `CC(C)(O)C1CCN1c1cc(Oc2ccc(-n3ncn(Cc4c(F)cccc4F)c3=O)cc2F)c(F)cn1` (centres unmarked) [Example 293, 4-(2,6-difluorobenzyl)-2-(3-fluoro-4-((5-fluoro-2-(2-(2-hydroxypropan-2-yl)azetidin-1-yl)pyridin-4-yl)oxy)phenyl)-2,4-dihydro-3H-1,2,4-triazol-3-one], the IC50 was less than 100 nM.

With `Cc1cnc(N2CC(C)(C#N)C2)cc1Oc1ccc(-n2ncn(Cc3c(F)cccc3F)c2=O)cc1F` [Example 294, 1-(4-(4-(4-(2,6-difluorobenzyl)-5-oxo-4,5-dihydro-1H-1,2,4-triazol-1-yl)-2-fluorophenoxy)-5-methylpyridin-2-yl)-3-methylazetidine-3-carbonitrile], the IC50 is less than 100 nM.

On to `Cc1nc(N2CCOCC2)sc1Oc1ccc(-n2ncn(Cc3c(F)cccc3F)c2=O)cc1F` [Example 295, 4-(2,6-difluorobenzyl)-2-(3-fluoro-4-((4-methyl-2-morpholinothiazol-5-yl)oxy)phenyl)-2,4-dihydro-3H-1,2,4-triazol-3-one], for which the IC50 is less than 100 nM.

As to `Cc1nc(N2CCN(C)CC2)sc1Oc1ccc(-n2ncn(Cc3c(F)cccc3F)c2=O)cc1F` [Example 296, 4-(2,6-difluorobenzyl)-2-(3-fluoro-4-((4-methyl-2-(4-methylpiperazin-1-yl)thiazol-5-yl)oxy)phenyl)-2,4-dihydro-3H-1,2,4-triazol-3-one], the IC50 is less than 100 nM.

As to `C[C@H]1CCCN1c1cc(Oc2ccc(-n3ncn(Cc4c(F)cccc4F)c3=O)cc2F)c(F)cn1` [Example 297, (S)-4-(2,6-difluorobenzyl)-2-(3-fluoro-4-((5-fluoro-2-(2-methylpyrrolidin-1-yl)pyridin-4-yl)oxy)phenyl)-2,4-dihydro-3H-1,2,4-triazol-3-one], the IC50 is less than 100 nM.

In the case of `Cc1nc(NC2=NC(C)(C)CO2)sc1Oc1ccc(-n2ncn(Cc3c(F)cccc3F)c2=O)cc1Cl` [Example 298, 2-(3-chloro-4-((2-((4,4-dimethyl-4,5-dihydrooxazol-2-yl)amino)-4-methylthiazol-5-yl)oxy)phenyl)-4-(2,6-difluorobenzyl)-2,4-dihydro-3H-1,2,4-triazol-3-one], the IC50 is less than 100 nM.

As to `Cc1nc(N2CC(C)(O)C2)sc1Oc1ccc(-n2ncn(Cc3c(F)cccc3F)c2=O)cc1F` [Example 299, 4-(2,6-difluorobenzyl)-2-(3-fluoro-4-((2-(3-hydroxy-3-methylazetidin-1-yl)-4-methylthiazol-5-yl)oxy)phenyl)-2,4-dihydro-3H-1,2,4-triazol-3-one], the IC50 is less than 100 nM.

Regarding `O=c1n(Cc2c(F)cccc2F)cnn1-c1ccc(Oc2ccnc(N3CC4(CCO4)C3)c2)cc1` [Example 300, 4-[(2,6-difluorophenyl)methyl]-2-[4-[[2-(1-oxa-6-azaspiro[3.3]heptan-6-yl)-4-pyridyl]oxy]phenyl]-1,2,4-triazol-3-one], the IC50 was in the range of 100 to 1000 nM.

As to `CCOC1CN(c2cc(Oc3ccc(-n4nc5n(c4=O)C(c4ccccc4)CC5)cc3)ccn2)C1` (centres unmarked) [Example 301, 2-[4-[[2-(3-ethoxyazetidin-1-yl)-4-pyridyl]oxy]phenyl]-5-phenyl-6,7-dihydro-5H-pyrrolo[2,1-c][1,2,4]triazol-3-one], the IC50 was less than 100 nM.

With `COC1(C#N)CN(c2cc(Oc3ccc(-n4ncn(Cc5c(F)cccc5F)c4=O)cc3)c(F)cn2)C1` [Example 302, 1-(4-(4-(4-(2,6-difluorobenzyl)-5-oxo-4,5-dihydro-1H-1,2,4-triazol-1-yl)phenoxy)-5-fluoropyridin-2-yl)-3-methoxyazetidine-3-carbonitrile], the IC50 was less than 100 nM.

Take `CC(C)(C)OC1CN(c2nccc(Oc3ccc(-n4ncn(Cc5c(F)cccc5F)c4=O)cc3)c2F)C1` [Example 303, 2-(4-((2-(3-(tert-butoxy)azetidin-1-yl)-3-fluoropyridin-4-yl)oxy)phenyl)-4-(2,6-difluorobenzyl)-2,4-dihydro-3H-1,2,4-triazol-3-one]: the IC50 was less than 100 nM.

Turning to `CCOC1CN(c2nccc(Oc3ccc(-n4nc(C)n(Cc5ccccc5)c4=O)cc3)c2F)C1` [Example 304, 4-benzyl-2-[4-[[2-(3-ethoxyazetidin-1-yl)-3-fluoro-4-pyridyl]oxy]phenyl]-5-methyl-1,2,4-triazol-3-one], the IC50 lay in the range of 100 to 1000 nM.

Take `CCOC1CN(c2nccc(Cl)c2Oc2ccc(-n3nc(C)n(Cc4ccccc4)c3=O)cc2)C1` [Example 305, 4-benzyl-2-[4-[[4-chloro-2-(3-ethoxyazetidin-1-yl)-3-pyridyl]oxy]phenyl]-5-methyl-1,2,4-triazol-3-one]: the IC50 fell in the range of 100 to 1000 nM.

In the case of `O=c1n(Cc2c(F)cccc2F)cnn1-c1ccc(Oc2ccnc(NC34CC(C3)C4)c2)cc1` [Example 306, 2-[4-[[2-(1-bicyclo[1.1.1]pentanylamino)-4-pyridyl]oxy]phenyl]-4-[(2,6-difluorophenyl)methyl]-1,2,4-triazol-3-one], the IC50 lay in the range of 100 to 1000 nM.

`O=c1n(Cc2c(F)cccc2F)cnn1-c1ccc(Oc2c(N3CC4(CCOCC4)C3)ccnc2Cl)cc1` [Example 307, 2-(4-((2-chloro-4-(7-oxa-2-azaspiro[3.5]nonan-2-yl)pyridin-3-yl)oxy)phenyl)-4-(2,6-difluorobenzyl)-2,4-dihydro-3H-1,2,4-triazol-3-one]: the IC50 was in the range of 100 to 1000 nM.

On to `Cc1cc(-n2ncn(Cc3c(F)cccc3F)c2=O)ccc1Oc1cc(NC23CC(C#N)(C2)C3)ncc1F` [Example 308, 3-((4-(4-(4-(2,6-difluorobenzyl)-5-oxo-4,5-dihydro-1H-1,2,4-triazol-1-yl)-2-methylphenoxy)-5-fluoropyridin-2-yl)amino)bicyclo[1.1.1]pentane-1-carbonitrile], for which the IC50 lay within 100 to 1000 nM.

For `CC(C)(C)OC(=O)Nc1cc(Oc2ccc(-n3ncn(Cc4c(F)cccc4F)c3=O)cc2)ccn1` [Example 309, tert-butyl (4-(4-(4-(2,6-difluorobenzyl)-5-oxo-4,5-dihydro-1H-1,2,4-triazol-1-yl)phenoxy)pyridin-2-yl)carbamate], the IC50 is less than 100 nM.

In the case of `Nc1cc(Oc2ccc(-n3ncn(Cc4c(F)cccc4F)c3=O)cc2)ccn1` [Example 310, 2-(4-((2-aminopyridin-4-yl)oxy)phenyl)-4-(2,6-difluorobenzyl)-2,4-dihydro-3H-1,2,4-triazol-3-one], the IC50 fell in the range of 100 to 1000 nM.

Consider `CC(C)(C)OC(=O)Nc1cc(Oc2ccc(-n3ncn(Cc4ccccc4)c3=O)cc2)ccn1` [Example 311, tert-butyl (4-(4-(4-benzyl-5-oxo-4,5-dihydro-1H-1,2,4-triazol-1-yl)phenoxy)pyridin-2-yl)carbamate], for which the IC50 fell in the range of 100 to 1000 nM.

Take `Cc1nc(CC2CNC2)sc1Oc1ccc(-n2ncn(Cc3c(F)cccc3F)c2=O)cc1` [Example 312, 2-(4-((2-(azetidin-3-ylmethyl)-4-methylthiazol-5-yl)oxy)phenyl)-4-(2,6-difluorobenzyl)-2,4-dihydro-3H-1,2,4-triazol-3-one]: the IC50 was less than 100 nM.

Turning to `N#CC12CC(Nc3nccc(Oc4ccc(-n5ncn(Cc6c(F)cccc6F)c5=O)cc4Cl)c3Cl)(C1)C2` [Example 313, 3-((3-chloro-4-(2-chloro-4-(4-(2,6-difluorobenzyl)-5-oxo-4,5-dihydro-1H-1,2,4-triazol-1-yl)phenoxy)pyridin-2-yl)amino)bicyclo[1.1.1]pentane-1-carbonitrile], the IC50 lay in the range of 100 to 1000 nM.

On to `COC1(C#N)CN(c2cc(Oc3ccc(-n4ncn(Cc5c(F)cccc5F)c4=O)cc3Cl)ccn2)C1` [Example 314, 1-(4-(2-chloro-4-(4-(2,6-difluorobenzyl)-5-oxo-4,5-dihydro-1H-1,2,4-triazol-1-yl)phenoxy)pyridin-2-yl)-3-methoxyazetidine-3-carbonitrile], for which the IC50 is less than 100 nM.

As to `O=c1n(Cc2c(F)cccc2F)cnn1-c1ccc(Oc2ccnc(N3CC4(CCN4)C3)c2)cc1` [Example 315, 2-(4-((2-(1,6-diazaspiro[3.3]heptan-6-yl)pyridin-4-yl)oxy)phenyl)-4-(2,6-difluorobenzyl)-2,4-dihydro-3H-1,2,4-triazol-3-one], the IC50 was less than 100 nM.

As to `C[C@H]1C[C@H](N)CN1c1cc(Oc2ccc(-n3ncn(Cc4c(F)cccc4F)c3=O)cc2)ccn1` [Example 316, 2-(4-((2-((2S,4S)-4-amino-2-methylpyrrolidin-1-yl)pyridin-4-yl)oxy)phenyl)-4-(2,6-difluorobenzyl)-2,4-dihydro-3H-1,2,4-triazol-3-one], the IC50 is less than 100 nM.

For `CC(C)(C)OC(=O)N1CCC12CN(c1cc(Oc3ccc(-n4ncn(Cc5c(F)cccc5F)c4=O)cc3)ccn1)C2` [Example 317, tert-butyl 6-(4-(4-(4-(2,6-difluorobenzyl)-5-oxo-4,5-dihydro-1H-1,2,4-triazol-1-yl)phenoxy)pyridin-2-yl)-1,6-diazaspiro[3.3]heptane-1-carboxylate], the IC50 is 1000 to 10000 nM.

Regarding `CCNC1CN(c2cc(Oc3ccc(-n4ncn(Cc5c(F)cccc5F)c4=O)cc3)ccn2)C1` [Example 318, 4-(2,6-difluorobenzyl)-2-(4-((2-(3-(ethylamino)azetidin-1-yl)pyridin-4-yl)oxy)phenyl)-2,4-dihydro-3H-1,2,4-triazol-3-one], the IC50 was 100 to 1000 nM.

Regarding `COC1(C#N)CN(c2cc(Oc3ccc(-n4ncn(Cc5c(F)cccc5F)c4=O)cc3)c(Cl)cn2)C1` [Example 319, 1-(5-chloro-4-(4-(4-(2,6-difluorobenzyl)-5-oxo-4,5-dihydro-1H-1,2,4-triazol-1-yl)phenoxy)pyridin-2-yl)-3-methoxyazetidine-3-carbonitrile], the IC50 is less than 100 nM.

For the molecule `COC1(C#N)CN(c2cc(Oc3ccc(-n4ncn(Cc5c(F)cccc5F)c4=O)cc3)c(C)cn2)C1` [Example 320, 1-(4-(4-(4-(2,6-difluorobenzyl)-5-oxo-4,5-dihydro-1H-1,2,4-triazol-1-yl)phenoxy)-5-methylpyridin-2-yl)-3-methoxyazetidine-3-carbonitrile], the IC50 is less than 100 nM.

Regarding `CC1(N)CN(c2nccc(Oc3ccc(-n4ncn(Cc5c(F)cccc5F)c4=O)cc3)c2F)C1` [Example 321, 2-(4-((2-(3-amino-3-methylazetidin-1-yl)-3-fluoropyridin-4-yl)oxy)phenyl)-4-(2,6-difluorobenzyl)-2,4-dihydro-3H-1,2,4-triazol-3-one], the IC50 is less than 100 nM.
